{"source": "patent US8557875B2", "about": "“Gene transfer agent composition containing polyamidoamine dendron” (Public University Corporation Osaka Prefecture University, priority 2009, dated 2013)", "key": {"NHDF-ad cells [1]": {"system": "NHDF-ad cells", "test": "GFP expression after gene transfer with lipoplexes (Example 4)", "format": "cell-based, human", "settings": "GFP-expression plasmid", "experimental": "A solvent was removed from each of chloroform solutions (1 mg/ml) of polyamidoamine dendrons (DL-G1 and DL-G1-U2) using a rotary evaporator to form 111.5 μg of lipid thin films. The thin films were dried in vacuo for 2 hours. Then, […] of phosphate buffered saline (PBS) were added. The mixtures were further sonicated for 2 minutes using a bath-type ultrasonicator to give 160 μl of lipid dispersion liquids. In addition, a solution (20 μg/ml, 160 μl) prepared by dissolving plasmid DNA in a 20 mM Tris-HCl buffer was added to each of the lipid dispersion liquids so as to obtain different N/P ratios. Then, the liquids were incubated at room temperature for 30 minutes to obtain lipoplexes.\npEGFP-C1 expressing a green fluorescent protein was used as a gene transfer plasmid, and NHDF-ad cells were used as target cells. Lipoplexes were prepared using, individually, DL-U2 and DL-G1. Then, gene transfer was performed.\nNHDF-ad cells were seeded in a 24-well plate.\n(NHDF-ad cells: 2.5×10^4 cells/well·DMEM+10% FBS (Pe/St) 500 μl)\n(i) A 20 mM Tris-HCl (pH 7.4) buffer was dispensed into two tubes at, individually, 56.3 μl (for NP ratio=3) and 37.5 μl (for NP ratio=6).\n(ii) 1.0 μg of plasmid DNA (pCAG-GFP) was added to each of the two tubes prepared in step (i) at 2 μl (1.0 μg), and the contents were stirred. […]"}, "HeLa-S3": {"system": "HeLa-S3", "test": "Cytotoxic evaluation on gene transfer (Example 5)", "format": "cell-based", "settings": "compared with Lipofectamine LTX and FuGENE HD"}, "NHDF-ad cells [2]": {"system": "NHDF-ad cells", "test": "Toxicity evaluation after multiple gene transfer, WST-8 kit (Example 7)", "format": "cell-based, human", "settings": "transfer on Day 1, 3, 5, WST-8 on Day 7", "experimental": "(NHDF-ad cells: 3.5×10^3 cells/well·DMEM+10% FBS (Pe/St) 70 μl)\n(i) A 20 mM Tris-HCl (pH 7.4) buffer was dispensed into tubes at 35.5 μl (for NP ratio=6).\n(ii) 1.0 μg of plasmid DNA (pCAG-GFP) was added to each of the two tubes prepared in step (i) at 2 μl (1.0 μg), and the contents were stirred.\n(iii) To the prepared plasmid DNA solution was added 37.5 μl of a DL-U2 liposome solution (N/P ratio=6), and the whole was thoroughly mixed using a vortex and incubated at room temperature for 30 minutes.\n(iv) 25 μl of an Opti-MEM(R) I Reduced-Serum Medium was further added, and the whole was thoroughly mixed and allowed to stand at room temperature for 5 minutes.\n7 μl and 14 μl per well of the DL-plasmid DNA complex solutions was individually added to three wells, and the contents were mixed by shaking the plate so as to be homogeneous.\n(vi) The cells were incubated at 37° C. in 5% CO2 for 4 hours, and the growth medium was replaced.\nFor the cells subjected to gene transfer operations on Day 1, the same gene transfer was performed on Day 3 and Day 5, as well.\nDay 7 Toxicity evaluation was performed according to the protocol of a WST-8 kit (Kishida Chemical Co., Ltd.).\n(a well to which no lipoplex solution was added was defined as 100%) […]"}, "HeLa cells": {"system": "HeLa cells", "test": "Gene transfer evaluated by luciferase assay (Example 2)", "format": "cell-based, human", "settings": "lipoplex with 1 μg plasmid DNA, various N/P ratios; FIG. 7 and FIG. 8", "experimental": "HeLa cells derived from human cervical cancer were seeded in a 24-well dish at 5.0×10^4 cells per well, and cultured overnight at 37° C. in 0.5 ml of a DMEM medium containing 10% FBS. Then, the cells were washed twice with PBS containing 0.36 mM CaCl2 and 0.42 mM MgCl2 (PBS (+)). Next, 0.5 ml of a DMEM medium containing 10% FBS was added, and the cells were supplemented with a lipoplex (100 μl) containing 1 μg of plasmid DNA per well and incubated at 37° C. for 4 hours. Afterward, the cells were washed three times with PBS (+) to remove the lipoplex not incorporated into the cells. Then, 1 ml of a DMEM medium containing 10% FBS was added, and the cells were cultured at 37° C. for 40 hours.\nThe cells treated with the lipoplex and cultured for 40 hours were washed twice with PBS (+), and further washed once with PBS (−). […] The luciferase activity and the amount of protein in the resulting cell lysate were determined by luciferase assay and a Coomassie (Bradford) Protein Assay Kit (PIERCE). […] The luminescent substrate solution (20 μl) was mixed with a luminescent substrate liquid (95 μl) including luciferin (13.5 μg) and a 5 mg/ml albumin solution (5 ml), and subjected to measurement for 20 seconds with a Lumat LB9507 luminometer (Berthold Japan Co., Ltd.) for an amount of luminescence."}}}
{"smiles": "CCCCCCCC/C=C\\CCCCCCCCN(CCCCCCCC/C=C\\CCCCCCCC)CCC(=O)NCCN(CCC(=O)NCCN)CCC(=O)NCCN", "note": "(racemic) [DL-G1-U2]", "values": [{"measurement": "gene transfer into NHDF-ad cells", "setting": "NHDF-ad cells [1]", "result": "allowed the gene to be transferred"}, {"measurement": "cytotoxicity", "setting": "HeLa-S3", "result": "lower cytotoxicity"}, {"measurement": "toxicity after multiple gene transfer", "setting": "NHDF-ad cells [2]", "result": "lowest toxicity"}, {"measurement": "gene transfer efficiency (luciferase activity) compared with G1", "setting": "HeLa cells", "result": "two times higher"}]}
